According to US11622964B2, “Method for destroying cellular mechanical homeostasis and promoting regeneration and repair of tissues and organs, and use thereof” (INSTITUTE OF ZOOLOGY, CHINESE ACADEMY OF SCIENCES, priority 2018, dated 2023):

Assays:
human fibroblasts = assay: Transcriptome sequencing of treated human fibroblasts; type: cell-based
[1] = tested on: CCl4-induced chronic severe hepatic fibrosis; assay: CCl4-induced chronic severe hepatic fibrosis model; type: in vivo, mice; conditions: 1 mg or 3 mg per kg per day, intraperitoneal or tail vein injection, 6-8 weeks
Experimental: The ICR, C57Bl/6 mice used in the experiment are purchased from SPF (Beijing) Biotechnology Co., Ltd., carbon tetrachloride is purchased from Aladdin Reagent (Shanghai) Co., Ltd. (C131583-1L), and corn oil is purchased from Sigma (C8267). 8-10 week-old female mice are selected and housed in the barrier for one week, they are randomly divided into two groups, and respectively injected with CCl4/corn oil (a volume ratio of 1:2) and corn oil. The dose of CCl4 is 2 ml/kg, twice a week for […]. After 6 weeks, the mice are anesthetized with 5% chloral hydrate, and part of the hepatic lobe is taken out, fixing with 4% paraformaldehyde, dehydrating and immersing in wax, then staining with Sirius Red (YY-R20384-100ML) kit for fibrosis, wherein the collagenous fibers are red, as shown in FIG. 3B. After successful identification of the modeling, the drug administration is performed by intraperitoneal injection or tail vein injection. […] Further, quantitative PCR is performed to identify the expression of fibrosis-related genes Acta2 (myofibroblast marker), Col1a1 (representing type I collagen), Col1a2 (representing type I collagen), Col6a1 (representing collagen), Col6a2 (representing collagen), and Vim (representing fibroblasts), as shown in FIG. 3E and FIG. 3F (continued). […]

[2] = tested on: mouse embryonic fibroblasts (MEFs); assay: TGF-β1-induced transformation of mouse embryonic fibroblasts into myofibroblasts; type: cell-based
Text: (§1) In this example, cell models for in vitro fibrosis are respectively built to activate mouse hepatic stellate Cells (mHSCs, FIG. 13(B)), mouse embryonic fibroblasts (MEFs FIG. 13(C)), mouse adult liver, lung, and heart-derived primary mesenchymal cells (priMCs, FIG. 13(D)), and human hepatic stellate cells (hLX-2, FIG. 13(E)) into myofibroblasts through the induction of TGF-β1. The specific experimental procedure is as shown in FIG. 9A: a medium containing 10% serum is used for the initial cell culture; after 24 hours the medium is replaced with low serum medium (or pre-starvation treatment for 16 hours) while adding 3 ng/ml TGF-β1 with DMSO or Bleb (20 μM); after 7 days the expression of myofibroblast activation marker protein (Acta2), collagen (Col1a1, Col1a2, Col3a1, and Col1a2), and matrix metalloproteinases and inhibitors (collagenases: MmP8, and MmP13; gelatinases: MmP2, and MmP9; a metalloproteinase inhibitor: Timp1/2/3) are identified.

[3] = tested on: mouse hepatic stellate cells (mHSCs); assay: TGF-β1-induced transformation of mouse hepatic stellate cells into myofibroblasts; type: cell-based; conditions: 20 μM, 3 ng/ml TGF-β1, 7 days
Text: as §1

liver tissue = assay: Liver tissue rigidity (Young's modulus, Mark-10 ESM303) and second harmonic scanning in CCl4 chronic severe liver damage; type: in vivo, mice
Text: The ICR, C57Bl/6 mice used in the experiment are purchased from SPF (Beijing) Biotechnology Co., Ltd.; elbow tweezers, finger tweezers, scissors, needle holders, suture needles, suture threads are purchased from Asone Trading Co., Ltd.; antibiotics are purchased from Gibco (15240-062). A chronic severe liver damage model induced by CCl4 (the same as Example 4) is constructed, and the mice are sacrificed by cervical dislocation after modeling. […] It can be seen from the above results that, the myosin inhibitor reduces the tissue rigidity during liver damage process.

Structure (SMILES): Cc1ccc2c(c1)C(=O)[C@]1(O)CCN(c3ccccc3)C1=N2 [(−)-blebbistatin]
- DNA replication, homologous recombination, mismatch repair, nucleotide excision repair and base excision repair related genes (human fibroblasts; 5-50 μM, after 6 hours): significantly upregulated
- important genes involved in homologous recombination (human fibroblasts; 5-50 μM, after 6 hours): significantly upregulated
- genes related to initiation of regeneration (such as FST) and neurogenesis-related genes (human fibroblasts; after induction for 22 days under the neural induction system): significantly upregulated
- mRNA expression of general stress response genes (human fibroblasts; day 1 and day 2): begins to downregulate
- genes related to general stress response (HSP70 family, HSP90) (human fibroblasts; early 6 hours of the induction): upregulated
- accumulation of collagenous fibers (Sirius red, Col I staining) [1]: inhibits
- activation of myofibroblasts [1]: inhibits
- TGF-β1 induced transformation into myofibroblasts and extracellular matrix synthesis ([2]; 20 μM, 3 ng/ml TGF-β1, 7 days): significantly inhibits
- stretched state / fibrous morphology of MEFs ([2]; compared with DMSO, S-Bleb-OB 20 μM): may destroy the stretched state
- TGF-β1-induced myofibroblast activation ([2]; scheme as Example 9-1, S-Bleb-OB 20 μM): have an inhibitory effect
- TGF-β1 induced transformation into myofibroblasts and extracellular matrix synthesis [3]: significantly inhibits
- rigidity of liver tissue (Young's modulus) (liver tissue; day 7 of the treatment): significantly reduces
- massive parallel array of fibers in the liver tissue (second harmonic intravital scanning) (liver tissue; mouse, in vivo): reduced
